Data set [1] relates to HG-3 cells.
The test system of data set [2] is HG-3 and PGA-1 cell lines. Kind of data set: alamarBlue cell viability assay, mean of both CLL cell lines. The class given is cell-based, human. The conditions noted are these: mean of HG-3 and PGA-1. On the technique in general: Resazurin is reduced to fluorescent resorufin, in cell work by metabolically active cells.
Another data set deals with PGA-1 cells. Description: alamarBlue cell viability assay. The settings on record: for IC50: read-out: PGA-1 IC50; for viability at 10 µM: read-out: cell viability.
Data set [3] deals with HG-3 cells. Kind of data set: alamarBlue cell viability assay. The settings on record: HG-3, 24 h; for IC50: read-out: HG-3 IC50; for viability at 1 µM: read-out: cell viability, HG-3, 1 µM, 24 h, vehicle = 100%; for viability at 10 µM: read-out: cell viability, HG-3, 10 µM, 24 h, vehicle = 100%.
A short description of data set [4]: HPLC stability study in phosphate buffers. It is filed as physicochemical. The settings on record: for recovery at 24 h: over the pH range studied (pH 4, 7.4 and 9); for remaining at 24 h, 14.6 µg/mL / half-life at 14.6 µg/mL: phosphate buffer; for remaining at 24 h, 14.6 µg/mL / % remaining 24 h pH 4 / % remaining 24 h pH 7.4 / % remaining 24 h pH 9: HPLC. Here is the method: A preliminary stability study was carried out on selected chalcones, maleic anhydride and maleimide adducts at acidic, neutral and basic conditions (pH 4, 7.4 and 9) using HPLC to determine suitability for further preclinical investigations. […] A possible degradation route for the maleimide 23n could be through the hydrolysis of the cyclic imide of the maleimide ring, leading to the resultant amic acid product.
All samples were analyzed using acetonitrile–water (80:20%, 70:30%, 60:40% isocratic) as the mobile phase over 10 min and a flow rate of 1 mL/min. Stock solutions were prepared by dissolving 5 mg of compounds in a mobile phase ([(acetonitrile (80%): water (20%)], 10 mL). Anhydride 22h was not detected at its retention time of 5.2 min at pH 9.0. The data presented represent the results of single experiments.
The HPLC stability studies for compounds 21a, 21i, 22h, 23a, 23g, 23n, 24a, 24h, 26a and 26n were performed using a Symmetry® column (C18, 5 µm, 4.6 × 150 mm), a Waters 2487 Dual Wavelength Absorbance detector, and an HPLC pump: Waters 1525 binary and Autosampler; Waters 717 plus (Waters Corporation, Milford, MA, USA), mobile phase [(acetonitrile (80%) and water (20%)] with a typical run time of 10 min and a flow rate of 1 mL/min with detection at 254 nm. The selected compounds 21a, 21i, 22h, 23a, 23g, 23n, 24a, 24h, 26a and 26n (5 mg) in the mobile phase (10 mL) provided the stock solution for the analysis. The phosphate buffers were prepared at pH values of 4, 7.4 and 9, as described in the British Pharmacopoeia monograph 2019. The stock solution (30 µL) was added to the appropriate buffer (1 mL) and retained at 37 °C. Samples were then analyzed over the following 24-h period at selected time intervals (t = 0 min, 5 min, 30 min, 60 min, 90 min, 120 min and 24 h).

The mark [5] stands for this setting: pH 4 buffer, 37 °C, read-out: % remaining 24 h pH 4.
Where [6] appears, read: pH 4 buffer, 37 °C, read-out: Half-life pH 4 (converted).
[7] abbreviates: pH 7.4 buffer, 37 °C, read-out: % remaining 24 h pH 7.4.
Where [8] appears, read: pH 7.4 buffer, 37 °C, read-out: Half-life pH 7.4 (converted).
The mark [9] stands for this setting: pH 9 buffer, 37 °C, read-out: % remaining 24 h pH 9.
Setting [10] is: pH 9 buffer, 37 °C, read-out: Half-life pH 9 (converted).

“And” between values parts separate entries of the source, which are not always exact repeats. Equal entries are not always repeated. Where two headings read alike, the source gives them in different places. A value given as a limit tells only on which side of the number the result lay.

As for `O=C(c1ccccc1)c1ccc(N2C(=O)C3C4c5ccccc5C(/C=C/C(=O)c5cccs5)(c5ccccc54)C3C2=O)cc1` (stereo not drawn) [Compound 26q, (E)-13-(4-Benzoylphenyl)-9-(3-oxo-3-(thiophen-2-yl)prop-1-en-1-yl)-9,10-dihydro-9,10-[3,4]epipyrroloanthracene-12,14-dione], the cell viability (commonly the share of living cells, or the viability signal relative to a control) in the data set on HG-3 cells [1] (10 µM) was 56%.
Take `COc1c2ccccc2c(/C=C/[N+](=O)[O-])c2ccccc12` [Compound 18b, reference compound]: in data set [2] (Homo sapiens, CLL cell), half-maximal inhibition (IC50) was put at 730 nM.
On to `COc1cc(C(=O)/C=C/C23c4ccccc4C(c4ccccc42)C2C(=O)NC(=O)C23)cc(OC)c1OC` (stereo not drawn) [Compound 23k, (E)-9-(3-Oxo-3-(3,4,5-trimethoxyphenyl)prop-1-en-1-yl)-9,10-dihydro-9,10-[3,4] epipyrroloanthracene-12,14-dione], for which the IC50 (as a rule, the point on the concentration scale where inhibition reaches its midpoint) turned out to be 5380 nM in the data set on PGA-1 cells (PGA-1, 24 h); 5190 nM in data set [2]; 4900 nM in the data set with HG-3 cells [3].
Turning to `COc1ccc(C(=O)/C=C/c2c3ccccc3cc3ccccc23)cc1OC` [Compound 21e, (E)-3-(Anthracen-9-yl)-1-(3,4-dimethoxyphenyl)prop-2-en-1-one], in the data set on HG-3 cells [3] (Homo sapiens), the viability (usually a per cent measure of how many cells are alive, often set against a control) at 1 µM was 50 to 61% and the viability at 10 µM lay within 37 to 54%.
Consider `COc1ccc(C(=O)/C=C/c2c3ccccc3cc3ccccc23)cc1` [Compound 21i, (E)-3-(anthracen-9-yl)-1-(4-methoxyphenyl)prop-2-en-1-one], for which the viability at 10 µM with PGA-1 cells (Homo sapiens, 24 h) was 49%. In addition, the “recovery at 24 h” value in data set [4] is on record as less than 50%. Besides, the amount remaining (in general, the share of the starting amount still present when the sample was taken) at 24 h, 14.6 µg/mL worked out at 27.9% in data set [4] (setting [5]), 26.6% in data set [4] (setting [7]) and 42.1% in data set [4] (setting [9]). Further, the half-life (commonly how long it takes for the measured level to halve) at 14.6 µg/mL in data set [4] (setting [6]) is approximately 11.5 h; in data set [4] (setting [8]) it was 3.85 h; in data set [4] (setting [10]), approximately 11.5 h.
For the compound `O=C1OC(=O)C2C1C1c3ccccc3C2(/C=C/[N+](=O)[O-])c2ccccc21` (stereo not drawn) [Compound 20h], the viability at 10 µM in the data set on PGA-1 cells (Homo sapiens, 24 h) was 2%; in the data set on HG-3 cells [3] (Homo sapiens), 31%.
With `O=C1NC(=O)C2C1C1c3ccccc3C2(C=C[N+](=O)[O-])c2ccccc21` (stereo not drawn) [Compound 20d], the IC50 in the data set with PGA-1 cells (Homo sapiens, 24 h) was 760 nM; in data set [2] (Homo sapiens, CLL cell) it was 770 nM; in the data set with HG-3 cells [3] (Homo sapiens) it was 780 nM. Also, the viability at 10 µM in the data set on PGA-1 cells (Homo sapiens, 24 h) is 17%; in the data set with HG-3 cells [3] (Homo sapiens), 14 to 43%.
As for `O=C(c1ccccc1)c1ccc(N2C(=O)C3C4c5ccccc5C(/C=C/[N+](=O)[O-])(c5ccccc54)C3C2=O)cc1` (stereo not drawn) [Compound 20c], the IC50 in the data set on PGA-1 cells (Homo sapiens, 24 h) turned out to be 880 nM; in data set [2] (Homo sapiens, CLL cell), 800 nM; in the data set on HG-3 cells [3] (Homo sapiens), 710 nM. Besides, the viability at 10 µM in the data set with PGA-1 cells (Homo sapiens, 24 h) was determined as 4%; with HG-3 cells [3] (Homo sapiens) it was 11%.
As for `O=C(/C=C/c1c2ccccc2cc2ccccc12)c1ccc(F)cc1` [Compound 21h, (E)-3-(anthracen-9-yl)-1-(4-fluorophenyl)prop-2-en-1-one], in the data set with PGA-1 cells (Homo sapiens, 24 h), the viability at 10 µM came to 70%.
With `O=C(/C=C/C12c3ccccc3C(c3ccccc31)C1C(=O)N(c3ccccc3)C(=O)C12)c1ccc(Br)cc1` (stereo not drawn) [Compound 24a], the viability at 10 µM in the data set with PGA-1 cells (Homo sapiens, 24 h) is 25%; with HG-3 cells [3] (Homo sapiens) it was 14%. In addition, the “recovery at 24 h” value in data set [4] is less than 50%. In addition, the amount remaining at 24 h, 14.6 µg/mL in data set [4] (setting [5]) worked out at 48.4%; in data set [4] (setting [7]), 45.2%; in data set [4] (setting [9]), 33.6%. The half-life at 14.6 µg/mL in data set [4] (setting [6]) was 4.17 h; in data set [4] (setting [8]), 23.5 h; in data set [4] (setting [10]) it was 23.5 h.
Regarding `O=C(/C=C/c1c2ccccc2cc2ccccc12)c1ccccn1` [Compound 21n, (E)-3-(anthracen-9-yl)-1-(pyridin-2-yl)prop-2-en-1-one], the viability at 10 µM was 47% with PGA-1 cells (Homo sapiens, 24 h) and 37 to 54% in the data set on HG-3 cells [3] (Homo sapiens). For the same compound, in the data set on HG-3 cells [3] (Homo sapiens), the viability at 1 µM was in the range of 50 to 61%.
As for `O=C(C=CC12c3ccccc3C(c3ccccc31)C1C(=O)N(c3ccccc3)C(=O)C12)c1cccs1` (stereo not drawn) [Compound 24q, 9-(E)-3-Oxo-3-(thiophen-2-yl)prop-1-en-1-yl)-13-phenyl-9,10-dihydro-9,10-[3,4]epipyrroloanthracene-12,14-dione], the cell viability with HG-3 cells [1] (10 µM) amounted to 24%.
Consider `O=C(C=CC12c3ccccc3C(c3ccccc31)C1C(=O)N(c3ccc(Cl)cc3)C(=O)C12)c1cccs1` (stereo not drawn) [Compound 25q, (E)-13-(4-Chlorophenyl)-9-(3-oxo-3-(thiophen-2-yl)prop-1-en-1-yl)-9,10-dihydro-9,10-[3,4]epipyrroloanthracene-12,14-dione], for which the cell viability in the data set with HG-3 cells [1] (10 µM) is recorded as 47%.
On to `O=C1C2C3c4ccccc4C(C=C[N+](=O)[O-])(c4ccccc43)C2C(=O)N1c1ccc(Cl)cc1` (stereo not drawn) [Compound 20b], for which the IC50 was found to be 660 nM in the data set with PGA-1 cells (Homo sapiens, 24 h); 760 nM in data set [2] (Homo sapiens, CLL cell); 850 nM in the data set with HG-3 cells [3] (Homo sapiens). In addition, the viability at 10 µM in the data set with PGA-1 cells (Homo sapiens, 24 h) was 3%; with HG-3 cells [3] (Homo sapiens), 8%.
With `O=C(/C=C/C12c3ccccc3C(c3ccccc31)C1C(=O)N(c3ccccc3)C(=O)C12)c1ccc(F)cc1` (stereo not drawn) [Compound 24h], in data set [4] (pH 4 buffer, 37 °C), the “Half-life pH 4” value was determined as 14.8 h; the “% remaining 24 h pH 4” value was 25% and 24.97%. In addition, in data set [4] (pH 7.4 buffer, 37 °C), the “Half-life pH 7.4” value is more than 24 h; the “% remaining 24 h pH 7.4” value is 80% and 79.48%. Besides, in data set [4] (pH 9 buffer, 37 °C), the “Half-life pH 9” value is recorded as more than 24 h; the “% remaining 24 h pH 9” value is 81% and 80.99%.
For the compound `O=C(C=CC12c3ccccc3C(c3ccccc31)C1C(=O)N(c3ccccc3)C(=O)C12)c1ccccn1` (stereo not drawn) [Compound 24n, 9-(E)-3-Oxo-3-(pyridin-2-yl)prop-1-en-1-yl)-13-phenyl-9,10-dihydro-9,10-[3,4]epipyrroloanthracene-12,14-dione], the values for the cell viability in the data set with HG-3 cells [1] (1 µM) and in the data set on HG-3 cells [1] (10 µM) were 48% and 4%, respectively.
On to `O=C(/C=C/C12c3ccccc3C(c3ccccc31)C1C(=O)N(c3ccc(Cl)cc3)C(=O)C12)c1ccc(F)cc1` (stereo not drawn) [Compound 25h, (E)-13-(4-Chlorophenyl)-9-(3-(4-fluorophenyl)-3-oxoprop-1-en-1-yl)-9,10-dihydro-9,10[3,4]epipyrroloanthracene-12,14-dione], for which, in the data set on HG-3 cells [1] (10 µM), the cell viability stood at 35%.
`O=C(/C=C/c1c2ccccc2cc2ccccc12)c1ccc(Cl)cc1Cl` [Compound 21d, (E)-3-(anthracen-9-yl)-1-(2,4-dichlorophenyl)prop-2-en-1-one]: the viability at 10 µM with PGA-1 cells (Homo sapiens, 24 h) stood at 50%. In the data set on HG-3 cells [3] (Homo sapiens), the viability at 1 µM lay within 50 to 61% and the viability at 10 µM fell in the range of 37 to 54%.
For `O=C(/C=C/c1c2ccccc2cc2ccccc12)c1ccc(Br)cc1` [Compound 21a, (E)-3-(anthracen-9-yl)-1-(4-bromophenyl)prop-2-en-1-one], the “recovery at 24 h” value in data set [4] was less than 50%. The values for the share remaining at 24 h, 14.6 µg/mL in data set [4] (setting [5]), in data set [4] (setting [7]) and in data set [4] (setting [9]) were 46.3%, 38.6% and 38.6%, respectively. Further, the values for the half-life at 14.6 µg/mL in data set [4] (setting [6]), in data set [4] (setting [8]) and in data set [4] (setting [10]) were 3.25 h, 2 h and 1.5 h, respectively.
For the compound `O=C1C2C(C(=O)N1c1ccccc1)C1(/C=C/[N+](=O)[O-])c3ccccc3C2(Cl)c2ccccc21` (stereo not drawn) [Compound 20g], the viability at 10 µM worked out at 1% in the data set with PGA-1 cells (Homo sapiens, 24 h) and 2% in the data set on HG-3 cells [3] (Homo sapiens).
`O=C(/C=C/c1c2ccccc2cc2ccccc12)c1ccc(Cl)cc1` [Compound 21l, (E)-3-(anthracen-9-yl)-1-(4-chlorophenyl)prop-2-en-1-one]: the viability at 10 µM in the data set with PGA-1 cells (Homo sapiens, 24 h) came to 70%.
Take `O=C(/C=C/C12c3ccccc3C(c3ccccc31)C1C(=O)OC(=O)C12)c1ccc(F)cc1` (stereo not drawn) [Compound 22h]: the “recovery at 24 h” value in data set [4] is less than 50%. In addition, in data set [4] (pH 4 buffer, 37 °C), the “Half-life pH 4” value was 2.1 h and the “% remaining 24 h pH 4” value is listed as 0.81%. Also, in data set [4] (pH 7.4 buffer, 37 °C), the “Half-life pH 7.4” value stood at 1 h and the “% remaining 24 h pH 7.4” value was determined as 3.13%. The “% remaining 24 h pH 9” value in data set [4] (pH 9 buffer, 37 °C) is “not detected”.

The record behind these values is publication PMC11359702, “Synthesis and Biochemical Evaluation of Ethanoanthracenes and Related Compounds: Antiproliferative and Pro-Apoptotic Effects in Chronic Lymphocytic Leukemia (CLL)” (Pharmaceuticals, 2024).
